Measurements reported in US20240174669A1, “CRYSTALLINE FORMS OF A PARP1 INHIBITOR” (XinThera, Inc., priority 2022, published 2024).
Converted amounts (≈) assume the structure as drawn. Read-outs that look alike come from different tables or passages of the source.

Assays:
[1] = Solubility in bio-relevant media, water and pH buffers (HPLC of filtrate, XRPD of filter cake); assay type: physicochemical; details: for solubility at 0.5 h / solubility at 2 h / solubility at 24 h / solubility / solubility at 4 h / solubility at 8 h: thermodynamic from solid; for solubility at 0.5 h: read-out: Solubility (mg/mL) 0.5 h; for solubility at 2 h: read-out: Solubility (mg/mL) 2 h; for solubility at 24 h: read-out: Solubility (mg/mL) 24 h; for Solubility (mg/mL) 0.5 h / Solubility (mg/mL) 2 h / Solubility (mg/mL) 4 h / Solubility (mg/mL) 8 h: listed as Freebase Form II (Lot #2); for solubility at 4 h: read-out: Solubility (mg/mL) 4 h; for solubility at 8 h: read-out: Solubility (mg/mL) 8 h
Protocol: About 15 mg of freebase Form II was weighed into sample vials, and then 3 mL of each media was added to make suspensions, respectively. […] Duplicated samples were prepared for each media.
(§1) HPLC analysis was performed with an Agilent HPLC 1260 series instrument.

[2] = Purity of filtrates / degradation in bio-relevant media (FeSSIF); assay type: physicochemical; details: for HPLC Purity API, Sample 1 / impurity RRT 1.74 / impurity RRT 1.91 / impurity RRT 1.95 / HPLC Purity API, Sample 2: FeSSIF filtrate, 220 nm; for HPLC Purity API, Sample 1 / impurity RRT 1.74 / impurity RRT 1.91 / impurity RRT 1.95: Sample 1
Protocol: About 15 mg of freebase Form II was weighed into sample vials, and then 3 mL of each media was added to make suspensions, respectively. At 0.5, 2 and 24 hours, about 1 mL of each suspension was filtered, the filtrate was analyzed by HPLC and pH, and the filter cake was analyzed by XRPD. Duplicated samples were prepared for each media.
Compared to control pH buffers, the solubility increased to ˜20 μg/mL in FaSSIF and ˜100 μg/mL in FeSSIF, possibly due to the solubilization effect of bile salt. […] Compared to FaSSIF, concentration of bile salt is 5-fold in FeSSIF. The degradation issue in FeSSIF was confirmed with another two batches (Lot #3 and Lot #2) of freebase Form II at 0.5-8 hours, as summarized in Table 12 and Table 13. Several impurities increased rapidly with time.
as §1

## CNC(=O)c1ccc(N2CCN(Cc3cnc4cc(C5CC5)c(=O)[nH]c4c3)CC2)cn1 [Freebase Form II, 5-(4-((7-cyclopropyl-6-oxo-5,6-dihydro-1,5-naphthyridin-3-yl)methyl)piperazin-1-yl)-N-methylpicolinamide]
[1]; FaSSIF, 37 °C, pH 6.45, fassif, FaSSIF, initial pH 6.45, 37° C., 800 rpm, 0.5 h
  solubility at 0.5 h: 0.016 mg/mL (≈ 38.2 µM)
[1]; FaSSIF, 37 °C, pH 6.45, fassif, FaSSIF, initial pH 6.45, 37° C., 800 rpm, 2 h
  solubility at 2 h: 0.025 mg/mL (≈ 59.7 µM)
[1]; FaSSIF, 37 °C, pH 6.45, fassif, FaSSIF, initial pH 6.45, 37° C., 800 rpm
  solubility at 24 h: 0.028 mg/mL (≈ 66.9 µM)
[1]; FaSSIF, 37 °C
  solubility: ~20 µg/mL (≈ 47.8 µM)
[1]; FaSSIF, initial pH 6.50, 0.5 h
  Solubility (mg/mL) 0.5 h: 0.015 mg/mL (≈ 35.8 µM)
[1]; FaSSIF, initial pH 6.50, 2 h
  Solubility (mg/mL) 2 h: 0.015 mg/mL (≈ 35.8 µM)
[1]; FaSSIF, initial pH 6.50, 4 h
  Solubility (mg/mL) 4 h: 0.017 mg/mL (≈ 40.6 µM)
[1]; FaSSIF, initial pH 6.50, 8 h
  Solubility (mg/mL) 8 h: 0.016 mg/mL (≈ 38.2 µM)
[1]; FaSSIF, pH 6.5, fassif, FaSSIF, initial pH 6.50, 0.5 h
  solubility at 0.5 h: 0.016 mg/mL (≈ 38.2 µM)
[1]; FaSSIF, pH 6.5, fassif, FaSSIF, initial pH 6.50, 2 h
  solubility at 2 h: 0.017 mg/mL (≈ 40.6 µM)
[1]; FaSSIF, pH 6.5, fassif, FaSSIF, initial pH 6.50, 4 h
  solubility at 4 h: 0.021 mg/mL (≈ 50.2 µM)
[1]; FaSSIF, pH 6.5, fassif, FaSSIF, initial pH 6.50, 8 h
  solubility at 8 h: 0.023 mg/mL (≈ 55 µM)
[1]; FeSSIF, 37 °C, pH 4.89, fessif, FeSSIF, initial pH 4.89, 37° C., 800 rpm, 0.5 h
  solubility at 0.5 h: 0.087 mg/mL (≈ 208 µM)
[1]; FeSSIF, 37 °C, pH 4.89, fessif, FeSSIF, initial pH 4.89, 37° C., 800 rpm, 2 h
  solubility at 2 h: 0.101 mg/mL (≈ 241 µM)
[1]; FeSSIF, 37 °C, pH 4.89, fessif, FeSSIF, initial pH 4.89, 37° C., 800 rpm
  solubility at 24 h: 0.12 mg/mL (≈ 287 µM)
[1]; FeSSIF, 37 °C, pH 4.98, fessif
  solubility: ~100 µg/mL (≈ 239 µM)
[1]; FeSSIF, 37 °C, pH 4.98, fessif, FeSSIF, initial pH 4.98, 8 h
  solubility at 8 h: 0.105 mg/mL (≈ 251 µM)
[1]; FeSSIF, initial pH 4.98, 0.5 h
  Solubility (mg/mL) 0.5 h: 0.087 mg/mL (≈ 208 µM)
[1]; FeSSIF, initial pH 4.98, 2 h
  Solubility (mg/mL) 2 h: 0.089 mg/mL (≈ 213 µM)
[1]; FeSSIF, initial pH 4.98, 4 h
  Solubility (mg/mL) 4 h: 0.096 mg/mL (≈ 229 µM)
[1]; FeSSIF, initial pH 4.98, 8 h
  Solubility (mg/mL) 8 h: 0.101 mg/mL (≈ 241 µM)
[1]; FeSSIF, pH 4.98, fessif, FeSSIF, initial pH 4.98, 0.5 h
  solubility at 0.5 h: 0.085 mg/mL (≈ 203 µM)
[1]; FeSSIF, pH 4.98, fessif, FeSSIF, initial pH 4.98, 2 h
  solubility at 2 h: 0.09 mg/mL (≈ 215 µM)
[1]; FeSSIF, pH 4.98, fessif, FeSSIF, initial pH 4.98, 4 h
  solubility at 4 h: 0.097 mg/mL (≈ 232 µM)
[1]; SGF, 37 °C, pH 1.27, simulated gastric fluid, SGF, initial pH 1.27, 37° C., 800 rpm, 0.5 h
  solubility at 0.5 h: > 5 mg/mL
[1]; SGF, 37 °C, pH 1.27, simulated gastric fluid, SGF, initial pH 1.27, 37° C., 800 rpm, 2 h
  solubility at 2 h: > 5 mg/mL
[1]; SGF, 37 °C, pH 1.27, simulated gastric fluid, SGF, initial pH 1.27, 37° C., 800 rpm
  solubility at 24 h: > 5 mg/mL
[1]; SGF, 37 °C, simulated gastric fluid
  solubility: > 5000 µg/mL
[1]; all media, up to 24 hours
  crystalline form during solubility test (XRPD of filter cake): remained unchanged
[1]; pH 5.0 buffer, 37 °C, pH 5, aqueous buffer
  solubility: ~50 µg/mL (≈ 119 µM)
[1]; pH 5.0 buffer, 37 °C, pH 5, aqueous buffer, pH 5.0 buffer, initial pH 4.94, 37° C., 800 rpm, 0.5 h
  solubility at 0.5 h: 0.045 mg/mL (≈ 108 µM)
[1]; pH 5.0 buffer, 37 °C, pH 5, aqueous buffer, pH 5.0 buffer, initial pH 4.94, 37° C., 800 rpm, 2 h
  solubility at 2 h: 0.05 mg/mL (≈ 119 µM)
[1]; pH 5.0 buffer, 37 °C, pH 5, aqueous buffer, pH 5.0 buffer, initial pH 4.94, 37° C., 800 rpm
  solubility at 24 h: 0.061 mg/mL (≈ 146 µM)
[1]; pH 6.5 buffer, 37 °C, pH 6.5, aqueous buffer
  solubility: ~10 µg/mL (≈ 23.9 µM)
[1]; pH 6.5 buffer, 37 °C, pH 6.5, aqueous buffer, pH 6.5 buffer, initial pH 6.43, 37° C., 800 rpm, 0.5 h
  solubility at 0.5 h: 0.007 mg/mL (≈ 16.7 µM)
[1]; pH 6.5 buffer, 37 °C, pH 6.5, aqueous buffer, pH 6.5 buffer, initial pH 6.43, 37° C., 800 rpm, 2 h
  solubility at 2 h: 0.008 mg/mL (≈ 19.1 µM)
[1]; pH 6.5 buffer, 37 °C, pH 6.5, aqueous buffer, pH 6.5 buffer, initial pH 6.43, 37° C., 800 rpm
  solubility at 24 h: 0.01 mg/mL (≈ 23.9 µM)
[1]; water, 37 °C, pH 4.18, water, Water, initial pH 4.18, 37° C., 800 rpm, 0.5 h
  solubility at 0.5 h: 0.007 mg/mL (≈ 16.7 µM)
[1]; water, 37 °C, pH 4.18, water, Water, initial pH 4.18, 37° C., 800 rpm, 2 h
  solubility at 2 h: 0.008 mg/mL (≈ 19.1 µM)
[1]; water, 37 °C, pH 4.18, water, Water, initial pH 4.18, 37° C., 800 rpm
  solubility at 24 h: 0.01 mg/mL (≈ 23.9 µM)
[1]; water, 37 °C
  solubility: ~10 µg/mL (≈ 23.9 µM)
[2]; FeSSIF
  purity of filtrates: decreased rapidly
[2]; 0.5 hr, listed as Lot# 2
  HPLC Purity API, Sample 1: 96.72 area %
  impurity RRT 1.74: 0.33 area %
  impurity RRT 1.91: 1.00 area %
  impurity RRT 1.95: 0.32 area %
  HPLC Purity API, Sample 2: 96.89 area %
[2]; 0.5 hr, listed as Lot# 3
  HPLC Purity API, Sample 1: 92.74 area %
  impurity RRT 1.74: 0.27 area %
  impurity RRT 1.91: 0.72 area %
  impurity RRT 1.95: 0.24 area %
  HPLC Purity API, Sample 2: 92.57 area %
[2]; 2 hr, listed as Lot# 2
  HPLC Purity API, Sample 1: 80.67 area %
